Data reported in the supplement of paper PMC10307832.

Assays:
Experiment in all cases: relative viability (nuclei count vs DMSO), 5 days (fraction); higher = more cells survive
XMD8-85 + Palbociclib = compound: CN1CCN(CC1)C2=CC(=C(C=C2)NC3=NC=C4C(=N3)N(C5=CC=CC=C5C(=O)N4C)C)OC [XMD8-85] + CC(=O)c1c(C)c2cnc(Nc3ccc(N4CCNCC4)cn3)nc2n(C2CCCC2)c1=O [Palbociclib] (partner 0.5 µM)
Outline: (§1)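 Medians of duplicate plates are given as relative viability. That measure is the nuclei count in treated wells divided by the count in vehicle wells. Counts were taken on 4× images of lung cancer cell lines in 1536-well plates, 5 days after pin-tool dosing the day after seeding with one drug alone or a fixed anchor-drug dose plus five library-drug doses (not always all listed) in √10 steps.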

4EGI-1 + Palbociclib = compound: O=C(O)C(Cc1ccccc1[N+](=O)[O-])=NNc1nc(-c2ccc(Cl)c(Cl)c2)cs1 (mixture of isomers) [4EGI-1] + CC(=O)c1c(C)c2cnc(Nc3ccc(N4CCNCC4)cn3)nc2n(C2CCCC2)c1=O [Palbociclib] (partner 0.5 µM)
Outline: as §1

4EGI-1 + Pictilisib = compound: O=C(O)C(Cc1ccccc1[N+](=O)[O-])=NNc1nc(-c2ccc(Cl)c(Cl)c2)cs1 (mixture of isomers) [4EGI-1] + CS(=O)(=O)N1CCN(Cc2cc3nc(-c4cccc5[nH]ncc45)nc(N4CCOCC4)c3s2)CC1 [Pictilisib] (partner 1 µM)
Outline: as §1

4EGI-1 + Olaparib = compound: O=C(O)C(Cc1ccccc1[N+](=O)[O-])=NNc1nc(-c2ccc(Cl)c(Cl)c2)cs1 (mixture of isomers) [4EGI-1] + O=C(c1cc(Cc2n[nH]c(=O)c3ccccc23)ccc1F)N1CCN(C(=O)C2CC2)CC1 [Olaparib] (partner 8 µM)
Outline: as §1

Cell Line	relative viability (XMD8-85 + Palbociclib; first compound 0.08 µM)	relative viability (XMD8-85 + Palbociclib; first compound 0.253 µM)	relative viability (XMD8-85 + Palbociclib; first compound 0.8 µM)	relative viability (XMD8-85 + Palbociclib; first compound 2.53 µM)	relative viability (XMD8-85 + Palbociclib; first compound 8 µM)	relative viability (4EGI-1 + Palbociclib; first compound 0.5 µM)	relative viability (4EGI-1 + Palbociclib; first compound 1.581 µM)	relative viability (4EGI-1 + Palbociclib; first compound 5 µM)	relative viability (4EGI-1 + Palbociclib; first compound 15.81 µM)	relative viability (4EGI-1 + Palbociclib; first compound 50 µM)	relative viability (4EGI-1 + Pictilisib; first compound 0.5 µM)	relative viability (4EGI-1 + Pictilisib; first compound 1.581 µM)	relative viability (4EGI-1 + Pictilisib; first compound 5 µM)	relative viability (4EGI-1 + Pictilisib; first compound 15.81 µM)	relative viability (4EGI-1 + Pictilisib; first compound 50 µM)	relative viability (4EGI-1 + Olaparib; first compound 0.5 µM)	relative viability (4EGI-1 + Olaparib; first compound 1.581 µM)	relative viability (4EGI-1 + Olaparib; first compound 5 µM)	relative viability (4EGI-1 + Olaparib; first compound 15.81 µM)	relative viability (4EGI-1 + Olaparib; first compound 50 µM)
NCI-H2228	0.651	0.572	0.828	0.844	0.35	1.22	0.708	0.785	0.787	0.314	0.444	0.403	0.464	0.335	0.298	0.947	0.702	0.693	0.536	0.128
LOU-NH91	0.536	0.496	0.503	0.534	0.514	0.493	–	0.519	0.581	0.52	0.532	–	0.539	0.478	0.484	0.95	–	0.911	0.738	0.564
NCI-H1666	0.679	0.656	0.606	0.632	0.645	0.673	0.693	0.633	0.641	0.598	0.38	0.343	0.524	0.376	0.266	0.74	0.727	0.778	0.622	0.488
NCI-H1395	0.503	0.61	0.621	0.54	0.495	0.697	–	0.634	0.594	0.485	0.638	–	0.735	0.567	0.346	0.492	–	0.47	0.457	0.394
SK-MES-1	0.342	0.351	0.31	–	0.248	0.354	0.27	0.336	0.288	0.18	0.458	0.349	0.338	0.303	0.347	0.767	0.508	0.639	0.229	0.148
EKVX	0.285	0.369	0.446	0.487	0.372	0.456	–	0.365	0.23	0.307	0.443	0.371	0.442	0.262	0.405	0.838	–	0.862	0.692	0.592
HOP-62	0.512	0.463	–	0.378	0.246	0.449	0.416	0.489	0.505	0.319	0.576	–	0.709	0.546	0.256	0.493	–	0.445	0.208	0.267
NCI-H1734	0.315	0.329	–	0.384	0.281	0.395	0.281	0.373	0.38	0.246	0.52	0.359	0.463	0.397	0.316	0.642	0.512	0.695	0.435	0.244
LCLC-103H	0.483	0.445	0.489	0.484	0.405	0.495	0.49	0.503	0.457	0.347	0.57	0.541	0.591	0.574	0.451	0.72	0.658	0.728	0.699	0.415
EMC-BAC-2	0.494	0.495	0.504	0.473	0.458	0.561	–	0.504	0.29	0.157	0.642	0.492	0.579	0.514	0.502	0.517	–	0.5	0.37	0.2
COR-L23	0.269	0.234	0.269	0.294	0.238	0.382	0.214	0.3	0.205	0.101	0.96	0.549	0.827	0.491	0.135	0.35	0.217	0.344	0.271	0.175
NCI-H460	0.129	0.221	0.139	0.223	0.0809	0.169	0.05	0.245	0.141	0.0263	0.381	–	0.366	0.331	0.261	0.425	–	0.436	0.244	0.134
HCC-366	0.316	0.298	0.375	0.291	0.196	0.396	0.224	0.396	0.272	0.0604	0.222	–	0.119	0.0976	0.0789	0.342	0.203	0.395	0.257	0.0601
NCI-H1755	0.47	0.445	0.432	0.449	0.393	0.439	0.424	0.425	0.435	0.406	0.604	0.477	0.459	0.398	0.235	0.936	0.811	0.858	0.78	0.616
NCI-H2087	0.205	0.168	0.222	0.217	0.172	0.281	0.243	0.244	0.163	0.16	1.02	0.813	0.888	0.626	0.386	0.633	0.562	0.542	0.278	0.162
NCI-H1650	0.296	0.317	0.318	0.353	0.193	0.417	–	0.331	0.255	0.141	0.671	–	0.659	0.351	0.235	0.757	–	0.803	0.537	0.214
CAL-12T	0.308	0.499	–	0.474	0.196	0.618	–	0.577	0.169	0.145	–	–	0.431	0.347	0.225	0.829	0.484	0.754	0.751	0.624
